# Data reported in patent US11028078B2 (The Johns Hopkins University, priority 2011, dated 2021).
# Assays:
# Gli1 transcript = experiment: Quantification of Gli1 transcript by TaqMan analysis in MB cells (Hh pathway); assay type: cell-based, mouse; settings: Gli1 transcript fold induction score; MB cells exposed 24 h at the IC90 for MB proliferation
# Source text: Inhibitors of the Hh pathway are known to inhibit MB cell proliferation. However, MB cell proliferation is also affected by drugs with targets other than Hh signaling.
# Following drug exposure, cells were washed in PBS and pelleted by centrifugation at 300×g. Cell pellets were lysed in Trizol reagent (Invitrogen). Total RNA was separated and collected in the aqueous phase following centrifugation of lysate in the presence of chloroform. Total RNA was ethanol precipitated and purified over RNeasy Mini Kit (Qiagen) filter columns per manufacturer's recommendations. Transcript levels were quantified using gene-specific TaqMan primer/probe sets and the StepOne Plus Real-Time PCR system (Applied Biosystems) on cDNA reverse transcribed using the QuantiTect Reverse Transcription Kit (Qiagen) per manufacturers' recommendations. Results were quantified using StepOne Plus software v2.1 (Applied Biosystems) and were expressed as fold induction relative to control samples using the A ΔCt (2^−ΔΔCt) method with actin as an internal control. The primer/probe set (Applied Biosystems) for TaqMan PCR for mouse Gli-1 was Mm00494645_m1, and for mouse actin was Mm00607939_s1.
# [1] = test system: MB cultures derived from Ptch−/+; p53−/− mice; experiment: Medulloblastoma (MB) proliferation assay; assay type: cell-based, mouse; settings: mouse medulloblastoma cultures, 96 h; relative to itraconazole
# Source text: These cultures were derived from Ptch^−/+; p53^−/− mice that spontaneously develop medulloblastoma associated with ligand independent Hh pathway activation.
# MB cultures were derived from mouse Ptch^−/+; p53^−/− MB grown as hind-flank allografts in nude mice (Harlan). Briefly, tumors were mechanically disrupted and made into single cell suspensions by two passages through a 70 μm nylon filter. Cells were pelleted by centrifugation and resuspended in PBS pH 7.4 twice. The cell suspension was then subjected to centrifugation at 1000×g for 25 min over a ficoll gradient. The viable cell layer formed at the ficoll boundary was then collected, suspended in PBS, and pelleted by centrifugation. The resulting pellet was then suspended and cultured as “neurospheres” in Neurobasal Media-A supplemented with retinoic acid deficient B-27 extract (NBMedia). Cells were cultured for three passages, with neurospheres disaggregated using Accumax (Innovative Cell Technologies) between passages.
# Cultured MB neurospheres were disaggregated as described and 1×10^4 cells were seeded into wells of a 96-well assay plate in NBMedia and exposed to multiple analogue concentrations: Relative cell numbers following a 96-h incubation were quantified by CellTiter 96® AQueous One Solution Cell Proliferation Assay (Promega) per manufacturer's recommendations using a SpectraMax M2e spectrophotometer and SoftMax Pro software (Molecular Devices). Data was analyzed using Prism5 (GraphPad Software) and IC50 and IC90 values were determined from dose-response curves fitted to mean corrected absorbance normalized to control treatment.
# HUVEC = HUVEC proliferation assay ([3H]thymidine incorporation); assay type: cell-based, human; settings: HUVEC; for Proliferation (IC50/IC50 Itra): IC50 of analog relative to IC50 of itraconazole; for Proliferation (EC50/IC50 Itra): footnote g: EC50 of analog relative to IC50 of itraconazole
# Description: The activity of the analogs against HUVEC proliferation, an in vitro proxy for angiogenesis inhibition (Table 3) was analyzed. […]
# Pooled HUVEC (Lonza) were grown in EGM-2 bullet kit media (Lonza) and used at passage eight or lower. The proliferation assays were conducted as previously described (Nacev, B.; Low, W. K.; Huang, Z.; Su, T.; Su, Z.; Alkuraya, H.; Kasuga, D.; Sun, W.; Trager, M.; Braun, M.; Fischer, G.; Zhang, K.; Liu, J. O., Acalcineurin-independent mechanism of angiogenesis inhibition by anon-immunosuppressive Cyclosporin Aanalog. J. Pharmacol. Exp. Ther. 2011, DOI:10.1124/jpet.111.18085).
# VEGFR2 = VEGFR2 glycosylation in HUVEC (Western blot scoring); assay type: cell-based, human; settings: VEGFR2 hypoglycosylation score in HUVEC, 2 μM, 24 h
# Description: VEGFR2 hypoglycosylation was scored either robust (++), intermediate (+), or absent (−) (FIG. 6).
# HUVEC were seeded at 5×10^4 per well of a 6-well plate in 3 mL of media. After an overnight recovery, the media was replaced with 2 mL fresh media and the analogs were added from 200× stocks in DMSO. Following a 24-h incubation, the media was aspirated and 2×SDS sample buffer was added to the cells which were incubated on ice for 10 min and then boiled for 10 min. […] Following three washes in TBS-T, the membrane was incubated with anti-rabbit horseradish peroxidase conjugated IgG (GE Healthcare) (1:5000-1:10000 dilution) in 1% BSA in TBS-T. The membranes were washed three times in TBS-T, incubated for 1-5 minutes with ECL substrate (Immobilon Wester, Milipore) and visualized (Kodak Image Staion 440 CF).
SMILES,Gli I Inhibition (IC90 Prolif. dose) (Gli1 transcript),MB Proliferation (IC50/IC50 Itra) [1],Proliferation (IC50/IC50 Itra) (HUVEC),Glycosylation (2 μM dose) (VEGFR2),Proliferation (EC50/IC50 Itra) (HUVEC)
"N#CCCCCCn1ncn(-c2ccc(N3CCN(c4ccc(OCC5COC(Cn6cncn6)(c6ccc(Cl)cc6Cl)O5)cc4)CC3)cc2)c1=O [Compound 7u, cis-(2S,4R)-4-[4-[4-[4-[[2-(2,4-Dichlorophenyl)-2-(1H-1,2,4-triazol-1-ylmethyl)-1,3-dioxolan-4-yl]methoxy]phenyl]-]piperazinyl]phenyl]-2,4-dihydro-2-(5-cyanopentyl)-3H-1,2,4-triazol-3-one]",+ (0.16 to 0.44),0.84,0.18,++,
"CC1(CCCCCCCn2ncn(-c3ccc(N4CCN(c5ccc(OCC6COC(Cn7cncn7)(c7ccc(Cl)cc7Cl)O6)cc5)CC4)cc3)c2=O)N=N1 [Compound 7x, cis-(2S,4R)-4-[4-[4-[4-[[2-(2,4-Dichlorophenyl)-2-(1H-1,2,4-triazol-1-ylmethyl)-1,3-dioxolan-4-yl]methoxy]phenyl]-lpiperazinyl]phenyl]-2,4-dihydro-2-(7-(3-methyl-3H-diazirin-3-yl)heptyl)-3H-1,2,4-triazol-3-one]",− (≥0.45),1.18,,−,1.1^g
"Cn1ncn(-c2ccc(N3CCN(c4ccc(OC[C@@H]5CO[C@@](Cn6cncn6)(c6ccc(Cl)cc6Cl)O5)cc4)CC3)cc2)c1=O (relative stereo) [Compound 7a, cis-(2S,4R)-4-[4-[4-[4-[[2-(2,4-Dichlorophenyl)-2-(UH-1,2,4-triazol-1-ylmethyl)-1,3-dioxolan-4-yl]methoxy]phenyl]-lpiperazinyl]phenyl]-2,4-dihydro-2-methyl-3H-1,2,4-triazol-3-one]",− (≥0.45),2.71,4.00,−,
"CCC#CCCn1ncn(-c2ccc(N3CCN(c4ccc(OCC5COC(Cn6cncn6)(c6ccc(Cl)cc6Cl)O5)cc4)CC3)cc2)c1=O [Compound 7o, cis-(2S,4R)-4-[4-[4-[4-[[2-(2,4-Dichlorophenyl)-2-(1H-1,2,4-triazol-1-ylmethyl)-1,3-dioxolan-4-yl]methoxy]phenyl]-lpiperazinyl]phenyl]-2,4-dihydro-2-(hex-3-ynyl)-3H-1,2,4-triazol-3-one]",++ (≤0.15),1.07,1.09,−,
"CC(C)Cn1ncn(-c2ccc(N3CCN(c4ccc(OC[C@@H]5CO[C@@](Cn6cncn6)(c6ccc(Cl)cc6Cl)O5)cc4)CC3)cc2)c1=O (relative stereo) [Compound 7f, cis-(2S,4R)-4-[4-[4-[4-[[2-(2,4-Dichlorophenyl)-2-(H,2,4-triazol-1-ylmethyl)-1,3-dioxolan-4-yl]methoxy]phenyl]-lpiperazinyl]phenyl]-2,4-dihydro-2-isobutyl-3H-1,2,4-triazol-3-one]",− (≥0.45),0.86,1.32,++,
"CCCCCn1ncn(-c2ccc(N3CCN(c4ccc(OCC5COC(Cn6cncn6)(c6ccc(Cl)cc6Cl)O5)cc4)CC3)cc2)c1=O [Compound 7g, cis-(2S,4R)-4-[4-[4-[4-[[2-(2,4-Dichlorophenyl)-2-(1H-1,2,4-triazol-1-ylmethyl)-1,3-dioxolan-4-yl]methoxy]phenyl]-lpiperazinyl]phenyl]-2,4-dihydro-2-pentyl-3H-1,2,4-triazol-3-one]",++ (≤0.15),0.66,1.09,−,
"CC(C)n1ncn(-c2ccc(N3CCN(c4ccc(OC[C@@H]5CO[C@@](Cn6cncn6)(c6ccc(Cl)cc6Cl)O5)cc4)CC3)cc2)c1=O (relative stereo) [Compound 7d, cis-(2S,4R)-4-[4-[4-[4-[[2-(2,4-Dichlorophenyl)-2-(1H-1,2,4-triazol-1-ylmethyl)-1,3-dioxolan-4-yl]methoxy]phenyl]-lpiperazinyl]phenyl]-2,4-dihydro-2-isopropyl-3H-1,2,4-triazol-3-one]",− (≥0.45),1.06,2.18,−,
"CC/C=C\CCn1ncn(-c2ccc(N3CCN(c4ccc(OCC5COC(Cn6cncn6)(c6ccc(Cl)cc6Cl)O5)cc4)CC3)cc2)c1=O [Compound 7t, cis-(2S,4R)-4-[4-[4-[4-[[2-(2,4-Dichlorophenyl)-2-(1H-1,2,4-triazol-1-ylmethyl)-13-dioxolan-4-yl]methoxy]phenyl]-lpiperazinyl]phenyl]-2,4-dihydro-2-((Z)-hex-3-enyl)-3H-1,2,4-triazol-3-one]",++ (≤0.15),0.94,0.73,−,
"CCC(CC)n1ncn(-c2ccc(N3CCN(c4ccc(OCC5COC(Cn6cncn6)(c6ccc(Cl)cc6Cl)O5)cc4)CC3)cc2)c1=O [Compound 7j, cis-(2S,4R)-4-[4-[4-[4-[[2-(2,4-Dichlorophenyl)-2-(1H-1,2,4-triazol-1-ylmethyl)-1,3-dioxolan-4-yl]methoxy]phenyl]-lpiperazinyl]phenyl]-2,4-dihydro-2-(1-ethylpropyl)-3H-1,2,4-triazol-3-one]",++ (≤0.15),0.54,1.10,+,
"O=c1n(-c2ccc(N3CCN(c4ccc(OCC5COC(Cn6cncn6)(c6ccc(Cl)cc6Cl)O5)cc4)CC3)cc2)cnn1CC1CCCC1 [Compound 7l, cis-(2S,4R)-4-[4-[4-[4-[[2-(2/l-Dichlorophenyl)-2-(1H-1,2,4-triazol-1-ylmethyl)-1,3-dioxolan-4-yl]methoxy]phenyl]-lpiperazinyl]phenyl]-2,4-dihydro-2-(1-cyclopentylmethyl)-3H-1,2,4-triazol-3-one]",+ (0.16 to 0.44),0.50,0.50,++,
"CCCCCCCCn1ncn(-c2ccc(N3CCN(c4ccc(OCC5COC(Cn6cncn6)(c6ccc(Cl)cc6Cl)O5)cc4)CC3)cc2)c1=O [Compound 7m, cis-(2S,4R)-4-[4-[4-[4-[[2-(2,4-Dichlorophenyl)-2-(1H-1,2,4-triazol-1-ylmethyl)-1,3-dioxolan-4-yl]methoxy]phenyl]-piperazinyl]phenyl]-2,4-dihydro-2-(n-octyl)-3H-1,2,4-triazol-3-one]",++ (≤0.15),0.67,,−,2.24^g
